Calls of active or inactive are those of the source.
Assays:
[1] = molecular target: T1, Ubiquitin-conjugating enzyme E2 N (Homo sapiens, UniProt P61088); assay type: functional;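 further: Dose-response confirmation in a TR-FRET assay detecting UBC13-driven polyubiquitin chain formation, inhibition measured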
T1 sequence (P61088 whole entry): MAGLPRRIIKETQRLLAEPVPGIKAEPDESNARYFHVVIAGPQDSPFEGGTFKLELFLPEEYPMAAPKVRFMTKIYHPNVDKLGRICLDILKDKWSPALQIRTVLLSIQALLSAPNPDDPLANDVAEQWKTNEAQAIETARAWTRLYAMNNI

[2] = molecular target: T2, Acyl-homoserine lactone acylase PvdQ (Pseudomonas aeruginosa (strain LESB58), UniProt Q9I194); experiment: P. aeruginosa PvdQ acylase inhibitors, dose response, biochemical, fluorescence, plate reader and imaging, cherry-picks (AID 493231)
T2 sequence (Q9I194 whole entry): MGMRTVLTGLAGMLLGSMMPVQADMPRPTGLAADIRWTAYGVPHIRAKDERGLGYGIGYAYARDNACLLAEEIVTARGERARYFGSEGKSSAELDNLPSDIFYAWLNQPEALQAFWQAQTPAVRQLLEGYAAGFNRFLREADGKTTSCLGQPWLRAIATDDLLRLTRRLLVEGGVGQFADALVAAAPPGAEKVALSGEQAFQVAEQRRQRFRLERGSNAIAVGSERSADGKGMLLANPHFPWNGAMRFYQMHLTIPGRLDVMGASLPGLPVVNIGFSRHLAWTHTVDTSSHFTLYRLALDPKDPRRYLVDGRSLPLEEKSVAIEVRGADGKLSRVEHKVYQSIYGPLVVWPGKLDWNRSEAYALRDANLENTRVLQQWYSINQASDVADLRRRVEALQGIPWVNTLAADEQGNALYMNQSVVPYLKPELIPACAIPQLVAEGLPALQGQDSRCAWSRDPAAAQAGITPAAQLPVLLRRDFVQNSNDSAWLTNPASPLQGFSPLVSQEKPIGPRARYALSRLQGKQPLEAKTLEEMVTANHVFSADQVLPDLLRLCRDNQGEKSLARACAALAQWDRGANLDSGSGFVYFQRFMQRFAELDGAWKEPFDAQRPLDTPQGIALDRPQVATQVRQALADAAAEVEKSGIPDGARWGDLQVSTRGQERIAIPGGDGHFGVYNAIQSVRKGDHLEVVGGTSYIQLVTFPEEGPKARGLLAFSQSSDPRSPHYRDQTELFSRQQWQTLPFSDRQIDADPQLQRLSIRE

[3] = luciferase reporter signal reduction – luminescence, H4-C neuroglioblastoma cells, dose response (AID 2458); assay type: functional, cell-based;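 further: H4 neuroglioblastoma cells stably carrying a luciferase reporter gene fusion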
[4] = system: BJ; experiment: cells; assay type: functional, cell-based; conditions: Homo sapiens
[5] = molecular target: T3, CAAX prenyl protease 2 (Homo sapiens, UniProt Q9Y256); experiment: human Rce1 protease inhibitors, dose response, biochemical, yeast membranes, quenched-peptide fluorescence, cherry-pick (AID 588849)
T3 sequence (Q9Y256 whole entry): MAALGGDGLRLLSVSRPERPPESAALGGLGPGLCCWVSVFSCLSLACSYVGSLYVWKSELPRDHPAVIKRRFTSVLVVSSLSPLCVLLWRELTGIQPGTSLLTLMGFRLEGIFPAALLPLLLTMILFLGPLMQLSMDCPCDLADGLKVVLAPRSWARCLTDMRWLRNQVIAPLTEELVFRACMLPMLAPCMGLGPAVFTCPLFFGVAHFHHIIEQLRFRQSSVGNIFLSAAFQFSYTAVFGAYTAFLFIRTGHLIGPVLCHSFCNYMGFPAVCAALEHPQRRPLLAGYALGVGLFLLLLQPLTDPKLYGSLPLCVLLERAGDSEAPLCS

[6] = cytotoxicity in HEK-293T cells, dose response, cytotoxicity control for TCR NF-kB inhibitor project, luminescence, T-cell screen hits (AID 489026); assay type: functional, cell-based;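 further: cells exposed to compound about 14 hours before the viability readout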
[7] = cells; assay type: functional, cell-based
[8] = inhibitors of firefly luciferase expression or activity, dose response, H4 neuroglioma cells, luminescence (AID 1990); assay type: functional, cell-based
[9] = inhibitors of SNCA 5'UTR-driven reporter translation, confirmation, H4 neuroglioma cells, luminescence (AID 1988); assay type: functional, cell-based
[10] = cytotoxicity toward DRD oncogenic fibroblasts, dose response, cell-based, non-viral oncogenic, luminescence (AID 1934); assay type: functional; conditions: Homo sapiens
[11] = inhibitors of SNCA 5'UTR-driven translation, confirmation, luminescence, H4 neuroglioblastoma cells, dose confirmation (AID 2454); assay type: functional, cell-based;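 further: H4 neuroglioblastoma cells carrying an alpha-synuclein 5'UTR luciferase reporter; potency for inhibition of the luciferase signal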
[12] = system: BJ; experiment: cytotoxicity toward BJ-TERT fibroblasts, dose response, cell-based, RAS-independent, luminescence (AID 1933); assay type: functional; conditions: Homo sapiens
[13] = molecular target: T4, Aspartyl aminopeptidase (Plasmodium falciparum 3D7, UniProt Q8I2J3); experiment: Counterscreen for inhibitors of M1 and M17 aminopeptidases: QFRET-based biochemical high throughput dose response assay for inhibitors of the Plasmodium falciparum M18 Aspartyl Aminopeptidase (PFM18AAP). [Related PubChem assays: 1619 (Screening assay (M17LAP inhibitors).), 1445 (Screening assay (M1AAP inhibitors).)]
T4 sequence (Q8I2J3 whole entry): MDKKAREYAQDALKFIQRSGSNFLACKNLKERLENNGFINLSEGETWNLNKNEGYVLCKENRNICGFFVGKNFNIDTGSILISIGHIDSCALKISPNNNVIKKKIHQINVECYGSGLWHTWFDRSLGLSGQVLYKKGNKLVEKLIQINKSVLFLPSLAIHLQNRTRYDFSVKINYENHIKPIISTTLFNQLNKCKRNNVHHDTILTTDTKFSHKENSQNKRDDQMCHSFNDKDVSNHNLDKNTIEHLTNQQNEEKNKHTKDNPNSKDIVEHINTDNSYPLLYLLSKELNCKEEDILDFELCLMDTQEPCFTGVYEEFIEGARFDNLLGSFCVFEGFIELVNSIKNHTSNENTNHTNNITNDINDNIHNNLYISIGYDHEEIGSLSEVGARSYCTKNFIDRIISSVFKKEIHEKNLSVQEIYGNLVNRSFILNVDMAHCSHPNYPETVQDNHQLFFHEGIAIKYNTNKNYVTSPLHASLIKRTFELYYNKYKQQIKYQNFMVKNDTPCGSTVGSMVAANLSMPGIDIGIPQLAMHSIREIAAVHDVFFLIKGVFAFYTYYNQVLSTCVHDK

[14] = molecular target: T5, Leucine aminopeptidase (Plasmodium falciparum 3D7, UniProt Q8IL11); experiment: P. falciparum M17LAP inhibitors, primary screen, biochemical, fluorogenic H-Leu-NHMec substrate, 1536-well (AID 1619); assay type: functional
T5 sequence (Q8IL11 whole entry): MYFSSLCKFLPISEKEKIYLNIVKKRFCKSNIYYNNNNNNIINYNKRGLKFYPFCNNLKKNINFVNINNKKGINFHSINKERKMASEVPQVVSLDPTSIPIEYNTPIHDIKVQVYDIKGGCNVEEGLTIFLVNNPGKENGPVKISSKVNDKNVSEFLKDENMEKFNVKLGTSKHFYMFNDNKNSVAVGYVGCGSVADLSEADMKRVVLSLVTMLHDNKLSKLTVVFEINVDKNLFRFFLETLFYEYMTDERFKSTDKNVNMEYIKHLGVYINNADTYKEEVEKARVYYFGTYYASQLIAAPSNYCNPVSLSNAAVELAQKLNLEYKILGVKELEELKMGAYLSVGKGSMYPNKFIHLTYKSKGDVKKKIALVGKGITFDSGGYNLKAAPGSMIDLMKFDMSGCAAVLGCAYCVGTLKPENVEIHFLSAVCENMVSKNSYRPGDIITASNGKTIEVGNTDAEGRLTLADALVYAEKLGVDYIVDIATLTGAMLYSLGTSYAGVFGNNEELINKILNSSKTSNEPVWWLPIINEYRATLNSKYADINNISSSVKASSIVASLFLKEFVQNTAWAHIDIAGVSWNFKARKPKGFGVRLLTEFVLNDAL

[15] = molecular target: Procathepsin L (Homo sapiens, UniProt P07711); experiment: cathepsin L inhibitors, dose response, counter-screen for M1/M17 aminopeptidase inhibitor project, biochemical, QFRET, 1536-well (AID 2214)
[16] = A cytotoxicity screen of small molecule inhibitors of the PhoP region in Salmonella typhi identified in the primary screen. [Related pubchem assays: 1850, 1864, 1985 ]; assay type: functional
[17] = molecular target: Eukaryotic translation initiation factor 4E (Mus musculus, UniProt P63073); experiment: eIF4E–eIF4G protein interaction inhibitors, dose response, biochemical, TR-FRET (AID 855); assay type: functional;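 further: potency for disrupting eIF4E binding to eIF4GI seen as loss of FRET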
Chain of Eukaryotic translation initiation factor 4E (P63073 whole entry): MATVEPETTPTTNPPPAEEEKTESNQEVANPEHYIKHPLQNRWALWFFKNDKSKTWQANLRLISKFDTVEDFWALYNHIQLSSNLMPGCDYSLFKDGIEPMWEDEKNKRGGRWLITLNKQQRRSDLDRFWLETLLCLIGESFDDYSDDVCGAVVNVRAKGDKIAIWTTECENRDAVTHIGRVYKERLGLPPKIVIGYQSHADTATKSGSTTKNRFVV

Chain of Procathepsin L (P07711 whole entry): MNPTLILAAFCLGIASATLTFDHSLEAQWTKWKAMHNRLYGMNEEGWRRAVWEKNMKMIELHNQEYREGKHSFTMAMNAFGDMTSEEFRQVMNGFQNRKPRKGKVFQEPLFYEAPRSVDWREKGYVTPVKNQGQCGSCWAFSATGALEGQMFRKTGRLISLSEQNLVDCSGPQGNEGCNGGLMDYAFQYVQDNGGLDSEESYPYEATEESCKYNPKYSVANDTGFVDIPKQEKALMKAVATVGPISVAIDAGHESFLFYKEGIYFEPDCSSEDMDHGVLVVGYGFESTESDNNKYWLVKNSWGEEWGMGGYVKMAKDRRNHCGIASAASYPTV

For COc1cccc(Cn2cnc3c([N+](=O)[O-])c(C)c(C)cc32)c1, the IC50 [1] was > 20 µM (inactive).

For Cc1cc(NC(=O)c2cc([N+](=O)[O-])ccc2Cl)no1, the AC50 [2] was 3.71 µM (active).

In the case of COc1ccccc1-c1nnc2sc(-c3ccc(N(C)C)cc3)nn12, the EC50 [3] is reported as 0.143 µM (active), the EC50 [4] is reported as 0.637 µM (active) and the AC50 [5] is reported as 1.02 µM (active). For the same compound, the IC50 [6] was > 80 µM (inactive), the EC50 [7] was 0.29 µM (active) and the EC50 [8] was < 0.1 µM (active). For the same compound, the EC50 [9] was < 0.1 µM (active), the EC50 [10] was 0.202 µM (active) and the EC50 [11] was 0.179 µM (active). For the same compound, the EC50 [12] was 0.179 µM (active).

For CCOc1ccc(C(=O)Nc2cccc(C)n2)cc1, the AC50 [2] was 19.3 µM (active).

In the case of COc1ccc(NC(=O)CSc2nc(O)cc(=O)n2C)cc1, the IC50 [13] is reported as > 73.5 µM (not active), the IC50 [14] is reported as 2.59 µM (active) and the IC50 [15] is reported as > 59.6 µM (not active).

In the case of CCOc1ccc(C2CC(=O)NC(SCC(=O)OC)=C2C#N)cc1 (centres undefined), the EC50 [16] is reported as > 50 µM (active).

In the case of O=C(CSc1nnc(-c2ccccc2)n1-c1ccc(Cl)cc1)NC1CCS(=O)(=O)C1 (centres undefined), the EC50 [16] is reported as > 50 µM (active).

With O=C1OC(c2ccccc2)=C/C1=C\c1ccc(-c2ccc([N+](=O)[O-])cc2)o1 the IC50 [17] was 50 µM (inactive).

Reference: ChEMBL document CHEMBL1201862, “PubChem BioAssay data set” (2004)
